Laboratory results taken from patent US8859574B2 (IRM LLC, priority 2008, dated 2014).

What follows are compounds tested against T1, IGF-1R Ba/F3 (Homo sapiens, UniProt P08069) (assay: Ba/F3 Cell Viability Inhibition Assay (IGF-1R Ba/F3)). Settings: Tel-TK transformed Ba/F3 cells, 48 hours, Britelite luminescence.
T1 construct: fused on or other part: TEL- (or BCR-) IGF-1R in Ba/F3: the kinase part holds the site
Assay type: cell-based, murine
From the text: The IC50 of a drug may be determined constructing a dose-response curve and examining the effect of different concentrations of antagonist on reversing agonist activity. IC50 values may be calculated for a given antagonist by determining the concentration needed to inhibit half of the maximum biological response of the agonist. To calculate IC50 values, a series of dose-response data (e.g., drug concentrations x1, x2, . . . , xn and growth inhibition y1, y2, . . . , yn, the values of y are in the range of 0-1) is generated. IC50 values may be determined by a computer-aided system using the formula: y=D+((A−D)/(1+10^(x-log(IC50)B) • where A is the ratio of growth inhibition between lowest drug concentration and control; B is the slope of sigmoidal curvel; and D is the ratio of growth inhibition between highest drug concentration and control.
Ba/F3 is a murine IL-3-dependent pro-B lymphoma cell line. Parental Ba/F3 cells are used to generate a panel of sublines whose proliferation and survival is rendered IL-3-independent by stable transduction with individual tyrosine kinases activated by fusion with the amino-terminal portion of TEL (amino acid 1-375) or BCR. In order to generate Ba/F3 cell lines transformed by Tel-Tyrosine Kinase (TK) fusions, parental Ba/F3 cells are infected with a retrovirus harboring each TEL-fusion kinase and subjected to puromycin selection and IL-3 withdrawal to obtain IL-3-independent, transformed Ba/F3 cells.
Each transformed Ba/F3 cells are cultured in RPMI-1640 media (Gibco Cat #11875093, Carlsbad, Calif.) supplemented with 10% FBS (Hyclone Cat #SV30014.03, Logan, Utah), 4.5 g/L glucose (Sigma #G5400, St. Louis, Mo.), 1.5 g/L sodium bicarbonate (Biowhittaker #17-613E, Walkersville, Md.) and Pen/Strep (Gibco #10378-016, Carlsbad, Calif.). Cells are splitted twice weekly.
The potency of test compounds against various Tel-TK transformed Ba/F3 lines is determined as follows. Exponentially growing BaF3 Tel-TK cells are diluted in fresh medium to 75,000 cells/mL and seeded into 384-well plates (3750 cells/well) at 50 μL/well using a μFill liquid dispenser (BioTek, Winooski, Vt., USA). Duplicate plates are run for each cell line. Test and control compounds are serially diluted with DMSO and arrayed in a polypropylene 384-well plate. […] of compound is transferred into the assay plates using a pin-transfer device, and the plates are incubated at 37° C. (5% CO2) for 48 hours. 25 μL Britelite (Perkin Elmer) is added and luminescence is quantified using Analyst GT (Molecular Devices). Custom curve-fitting software is used to produce a logistic fit of percent cell viability as a function of the logarithm of inhibitor concentration. The IC50 is interpolated as the concentration of compound needed to reduce cell viability to 50% of a DMSO control. Parental Ba/F3 cells that are maintained and cultured in presence of IL-3 (1 ng/ml in final) are diluted in fresh medium containing IL-3 (1 ng/ml in final) to 75,000 cells/mL following the same procedure as described above.

T1 sequence (P08069 999-1274 limits assumed): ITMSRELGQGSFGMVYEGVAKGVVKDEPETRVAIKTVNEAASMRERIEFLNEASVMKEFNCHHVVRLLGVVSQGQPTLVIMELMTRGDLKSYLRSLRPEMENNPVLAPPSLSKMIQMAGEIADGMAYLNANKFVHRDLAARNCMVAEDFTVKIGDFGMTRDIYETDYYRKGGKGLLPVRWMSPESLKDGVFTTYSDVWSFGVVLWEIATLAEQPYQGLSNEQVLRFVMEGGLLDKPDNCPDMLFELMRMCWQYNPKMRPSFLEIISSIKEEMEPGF

| SMILES | IC50 [nM] |
| --- | --- |
| Cc1cc(Nc2nc(Nc3cc(C)c(C4CCN(C(=O)[C@H]5C[C@@H](O)CN5C)CC4)cc3C)ncc2Cl)n[nH]1 [Compound 123, (4-(4-(5-chloro-4-(5-methyl-1H-pyrazol-3-ylamino)pyrimidin-2-ylamino)-2,5-dimethylphenyl)piperidin-1-yl)((2R,4R)-4-hydroxy-1-methylpyrrolidin-2-yl)methanone] | 48 |
| Cc1cc(Nc2nc(Nc3cc(C)c(C4CCN(C(=O)[C@]5(C)CCCN5)CC4)cc3F)ncc2Cl)n[nH]1 [Compound 138, (S)-(4-(4-(5-chloro-4-(5-methyl-1H-pyrazol-3-ylamino)pyrimidin-2-ylamino)-5-fluoro-2-methylphenyl)piperidin-1-yl)(2-methylpyrrolidin-2-yl)methanone] | 91 |
| Cc1cc(Nc2nc(Nc3cc(C)c(C4CCN(C5CS(=O)(=O)C5)CC4)cc3F)ncc2Cl)n[nH]1 [Compound 148, 5-chloro-N^2-(2-fluoro-5-methyl-4-(1-(1,1-dioxido-3-thietanyl)piperidin-4-yl)phenyl)-N^4-(5-methyl-1H-pyrazol-3-yl)pyrimidine-2,4-diamine] | 18 |
| CCN1CCC(c2cc(C)c(Nc3ncc(C(F)(F)F)c(Nc4cc(C)[nH]n4)n3)cc2C)CC1 [Compound 221, N2-(4-(1-ethylpiperidin-4-yl)-2,5-dimethylphenyl)-N4-(5-methyl-1H-pyrazol-3-yl)-5-(trifluoromethyl)pyrimidine-2,4-diamine] | 34 |
| Cc1cc(Nc2nc(Nc3cc(C)c([C@H]4CCN[C@H](C)C4)cc3F)ncc2Cl)n[nH]1 (relative stereo) [Compound 279, 5-chloro-N2-(2-fluoro-5-methyl-4-((trans)-2-methylpiperidin-4-yl)phenyl)-N4-(5-methyl-1H-pyrazol-3-yl)pyrimidine-2,4-diamine] | 64 |
| Cc1cc(Nc2nc(Nc3cc(C)c(C4CCN(S(C)(=O)=O)CC4)cc3C)ncc2Cl)n[nH]1 [Compound 63, 5-chloro-N2-(2,5-dimethyl-4-(1-(methylsulfonyl)piperidin-4-yl)phenyl)-N4-(5-methyl-1H-pyrazol-3-yl)pyrimidine-2,4-diamine] | 2 |
| Cc1cc(Nc2nc(Nc3cc(C)c(C4CCN([C@H](C)C(N)=O)CC4)cc3C)ncc2Cl)n[nH]1 [Compound 167, (R)-2-(4-(4-(5-chloro-4-(5-methyl-1H-pyrazol-3-ylamino)pyrimidin-2-ylamino)-2,5-dimethylphenyl)piperidin-1-yl)propanamide] | 6 |
| Cc1cc(Nc2nc(Nc3cc(C)c(C4CCN(CCC(=O)N5CCCC5)CC4)cc3C)ncc2Cl)n[nH]1 [Compound 238, 3-(4-(4-(5-chloro-4-(5-methyl-1H-pyrazol-3-ylamino)pyrimidin-2-ylamino)-2,5-dimethylphenyl)piperidin-1-yl)-1-(pyrrolidin-1-yl)propan-1-one] | 39 |
| Cc1cc(Nc2nc(Nc3cc(C)c(C4CCN(C)CC4)cc3OC(C)C)ncc2Cl)n[nH]1 [Compound 3, 5-chloro-N2-(2-isopropoxy-5-methyl-4-(1-methylpiperidin-4-yl)phenyl)-N4-(5-methyl-1H-pyrazol-3-yl)pyrimidine-2,4-diamine] | 104 |
| Cc1cc(Nc2nc(Nc3cc(C)c(C4CCN(C5CC5)CC4)cc3F)ncc2Cl)n[nH]1 [Compound 210, 5-chloro-N^2-(4-(1-cyclopropylpiperidin-4-yl)-2-fluoro-5-methylphenyl)-N^4-(5-methyl-1H-pyrazol-3-yl)pyrimidine-2,4-diamine] | 32 |
| Cc1cc(Nc2nc(Nc3cc(C)c(C4CCN(C(=O)C5CCN(C)CC5)CC4)cc3F)ncc2Cl)n[nH]1 [Compound 118, (4-(4-(5-chloro-4-(5-methyl-1H-pyrazol-3-ylamino)pyrimidin-2-ylamino)-5-fluoro-2-methylphenyl)piperidin-1-yl)(1-methylpiperidin-4-yl)methanone] | 81 |
| Cc1cc(Nc2nc(Nc3cc(C)c(C4CCN(C)CC4)cc3F)ncc2Cl)n[nH]1 [Compound 1, 5-Chloro-N2-(2-fluoro-5-methyl-4-(1-methylpiperidin-4-yl)phenyl)-N4-(5-methyl-1H-pyrazol-3-yl)pyrimidine-2,4-diamine] | 11 |
| CNC(=O)C(C)N1CCC(c2cc(F)c(Nc3ncc(Cl)c(Nc4cc(C)[nH]n4)n3)cc2C)CC1 (centres unmarked) [Compound 50, 2-(4-(4-(5-chloro-4-(5-methyl-1H-pyrazol-3-ylamino)pyrimidin-2-ylamino)-5-fluoro-2-methylphenyl)piperidin-1-yl)-N-methylpropanamide] | 22 |
| CCNC1(C(=O)N2CCC(c3cc(F)c(Nc4ncc(Cl)c(Nc5cc(C)[nH]n5)n4)cc3C)CC2)CCC1 [Compound 176, (4-(4-(5-chloro-4-(5-methyl-1H-pyrazol-3-ylamino)pyrimidin-2-ylamino)-5-fluoro-2-methylphenyl)piperidin-1-yl)(1-(ethylamino)cyclobutyl)methanone] | 84 |
| Cc1cc(Nc2nc(Nc3cc(C)c(C4CCN(C(=O)CCCN5CCOCC5)CC4)cc3C)ncc2Cl)n[nH]1 [Compound 224, 1-(4-(4-(5-Chloro-4-(5-methyl-1H-pyrazol-3-ylamino)pyrimidin-2-ylamino)-2,5-dimethylphenyl)piperidin-1-yl)-4-morpholinobutan-1-one] | 20 |
| CCOC(=O)N1CCC(c2cc(C)c(Nc3ncc(Cl)c(Nc4cc(C)[nH]n4)n3)cc2Cl)CC1 [Compound 67, ethyl 4-(2-chloro-4-(5-chloro-4-(5-methyl-1H-pyrazol-3-ylamino)pyrimidin-2-ylamino)-5-methylphenyl)piperidine-1-carboxylate] | 182 |
| Cc1cc(Nc2nc(Nc3cc(C)c(C4CCN(C5CCOCC5)CC4)cc3F)ncc2Cl)n[nH]1 [Compound 209, 5-chloro-N^2-(2-fluoro-5-methyl-4-(1-(tetrahydro-2H-pyran-4-yl)piperidin-4-yl)phenyl)-N^4-(5-methyl-1H-pyrazol-3-yl)pyrimidine-2,4-diamine] | 27 |
| Cc1cc(Nc2ncc(Cl)c(Nc3cc(C4CC4)[nH]n3)n2)c(F)cc1C1CCNCC1 [Compound 17, 5-chloro-N4-(5-cyclopropyl-1H-pyrazol-3-yl)-N2-(2-fluoro-5-methyl-4-(piperidin-4-yl)phenyl)pyrimidine-2,4-diamine] | 160 |
| Cc1cc(Nc2nc(Nc3cc(C)c(C4CCN(C(=O)C5CNC5)CC4)cc3F)ncc2Cl)n[nH]1 [Compound 131, Azetidin-3-yl(4-(4-(5-chloro-4-(5-methyl-1H-pyrazol-3-ylamino)pyrimidin-2-ylamino)-5-fluoro-2-methylphenyl)piperidin-1-yl)methanone] | 1250 |
| Cc1cc(Nc2nc(Nc3cc(C)c(C4CCN(C(=O)c5oc(C)nc5C)CC4)cc3F)ncc2Cl)n[nH]1 [Compound 127, (4-(4-(5-chloro-4-(5-methyl-1H-pyrazol-3-ylamino)pyrimidin-2-ylamino)-5-fluoro-2-methylphenyl)piperidin-1-yl)(2,4-dimethyloxazol-5-yl)methanone] | 27 |
| Cc1cc(Nc2nc(Nc3cc(C)c(C4CCN(Cc5ccncc5)CC4)cc3F)ncc2Cl)n[nH]1 [Compound 288, 5-chloro-N2-(2-fluoro-5-methyl-4-(1-(pyridin-4-ylmethyl)piperidin-4-yl)phenyl)-N4-(5-methyl-1H-pyrazol-3-yl)pyrimidine-2,4-diamine] | 93 |
| Cc1cc(Nc2nc(Nc3cc(C)c(C4CCN(C(=O)CN5C(C)(C)CCCC5(C)C)CC4)cc3C)ncc2Cl)n[nH]1 [Compound 104, 1-(4-(4-(5-chloro-4-(5-methyl-1H-pyrazol-3-ylamino)pyrimidin-2-ylamino)-2,5-dimethylphenyl)piperidin-1-yl)-2-(2,2,6,6-tetramethylpiperidin-1-yl)ethanone] | 18 |
| Cc1cc(Nc2nc(Nc3cc(C)c(C4CCN(C(=O)Cn5cccc5)CC4)cc3F)ncc2Cl)n[nH]1 [Compound 100, 1-(4-(4-(5-chloro-4-(5-methyl-1H-pyrazol-3-ylamino)pyrimidin-2-ylamino)-5-fluoro-2-methylphenyl)piperidin-1-yl)-2-(1H-pyrrol-1-yl)ethanone] | 25 |
